Measured values taken from patent US9446026B2, “Ocular formulations for drug-delivery to the posterior segment of the eye” (PanOptica, Inc., priority 2013, dated 2016).
pIC50: −log10 of the molar value.

Legend:
[1] = 1- to 5-day PK with topical ocular Compound-I formulations (Example 5); settings: Dutch Belted, rabbit, aqueous humor, Average Concentration of Compound-I, Dutch Belted rabbits, topical ocular q.d. or b.i.d., 24 hr post-dose, Group per row, LLOQ 0.000903 μM
Experimental: All doses were administered within ±1 hour of the scheduled dose time. On day 1, Groups 1, 2, 4-6, 8, 10, 11, 13, 15, and 17 received one dose (q.d.) for either one (1) or four (4) days. […] Animals in Groups 18 and 19 received b.i.d dosing of vehicle only formulations for five (5) consecutive days.
Ocular sampling occurred for Group 1 at 0.5, 1, 2, 4, 8, or 24 hours post-dose relative to the day 1 dose. Ocular sampling occurred for Groups 2 and 6 at 1, 8, and 24 hours post-dose relative to the day 5 morning dose. Ocular sampling for Groups 3, 7, 8, 11, and 13 occurred at 1 and 24 hours post-dose relative to the day 5 morning dose. Ocular sampling for Groups 4, 9, 10, 12, 14, 15, 16, and 17 occurred at 1 hour post-dose relative to the day 5 morning dose. Group 5 ocular sampling occurred at 0.5, 1, 2, 4, 8, and 24 hours post-dose relative to the day 1 dose. Animals in Groups 18 and 19 were followed only by clinical observations for five (5) days.
Aqueous humor, cornea, central and peripheral retina, and central and peripheral choroid samples were collected. Aqueous humor, cornea, central retina, and central choroid samples were then assayed. Peripheral retina and peripheral choroid samples were assayed only for Groups 1-8, 12, 14, and 16 per study protocol.
Rabbit aqueous humor, cornea, central and peripheral retina, and central and peripheral choroid samples were analyzed.

FGFR-2 = FGFR-2 (Homo sapiens (Human), UniProt P21802); experiment: In vitro inhibition of tyrosine kinases; assay type: biochemical
Chain of FGFR-2 (P21802 22-821): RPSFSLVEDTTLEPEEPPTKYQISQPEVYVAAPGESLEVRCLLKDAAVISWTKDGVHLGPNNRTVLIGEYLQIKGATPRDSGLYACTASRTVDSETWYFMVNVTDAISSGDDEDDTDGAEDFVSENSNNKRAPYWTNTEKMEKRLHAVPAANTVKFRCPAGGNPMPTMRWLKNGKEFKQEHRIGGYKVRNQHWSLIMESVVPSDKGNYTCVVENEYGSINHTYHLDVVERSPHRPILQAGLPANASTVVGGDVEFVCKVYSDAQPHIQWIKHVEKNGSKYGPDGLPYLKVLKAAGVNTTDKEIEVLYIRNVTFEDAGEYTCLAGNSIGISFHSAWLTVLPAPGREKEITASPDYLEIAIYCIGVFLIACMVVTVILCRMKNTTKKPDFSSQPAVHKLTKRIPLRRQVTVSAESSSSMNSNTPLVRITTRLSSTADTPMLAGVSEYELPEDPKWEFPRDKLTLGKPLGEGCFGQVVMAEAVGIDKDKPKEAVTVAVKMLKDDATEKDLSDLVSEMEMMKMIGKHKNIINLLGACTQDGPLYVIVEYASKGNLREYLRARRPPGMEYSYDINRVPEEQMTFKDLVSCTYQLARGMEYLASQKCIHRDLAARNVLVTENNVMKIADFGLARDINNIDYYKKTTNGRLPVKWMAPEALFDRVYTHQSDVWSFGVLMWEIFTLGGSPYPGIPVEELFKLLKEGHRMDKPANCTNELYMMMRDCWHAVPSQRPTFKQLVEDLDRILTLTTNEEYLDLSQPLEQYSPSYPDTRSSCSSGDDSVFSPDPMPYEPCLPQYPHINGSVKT

Compound: Cl.NC(=O)c1c(OCc2c(F)cc(Br)cc2F)nsc1NC(=O)NCCCCN1CCCC1 [Compound-I, 3-[(4-bromo-2,6-difluorophenyl)methoxy]-5-[[[[4-(1-pyrrolidinyl)butyl]amino]carbonyl]amino]-4-isothiazolecarboxamide hydrochloride]
- concentration at 24 h [1]: 5.18 nM
- pIC50 (FGFR-2; 10-point titration curve (257 nM-5000 nM)): 8.51
- IC50, FGFR-2 (FGFR-2; 10-point titration curve, hydrochloride): 1.75 ng/mL and (1.75) ng/mL
